{"source": "patent US9539237B2", "about": "“Compositions and methods for drug-sensitization or inhibition of a cancer cell” (The Texas A&M University System, priority 2012, dated 2017)", "key": {"[1]": {"system": "CRL2631 cells", "experiment": "Collagen invasion 3D assay, CRL2631 cells", "type": "cell-based, human", "conditions": "10 uM Rifabutin in collagen matrix, 24 hours", "description": "The effects of rifabutin on cell invasion was assessed in a collagen invasion 3D assay. Increased interest in the use of 3D culture systems has been motivated by accumulating evidence that 3D models better reflect the microenvironment of tumors and metastases and more accurately predict therapeutic response in vivo compared with conventional 2D assays. A collagen invasion 3D assay allows the rapid and quantitative assessment of invasiveness and a means to screen for drugs which alter the invasive phenotype of tumor cells.\nThe CHOP-resistant G3 cell line is much more invasive in a collage invasion 3D assay than its CHOP-sensitive parent cell line (CRL2631). Collagen matrices (1 mg/ml) were prepared as previously described in Su. S. C., et al., Molecular profile of endothelial invasion of three-dimensional collagen matrices: insights into angiogenic sprout induction in wound healing. Am. J. Physiol. […] Cell invasion density was quantified by counting fixed cultures under transmitted light using an Olympus CK2 inverted microscope equipped with eyepieces displaying a 10×10 ocular grid. For each condition, four random fields were selected and the number of invading cells per high power field (HPF) was counted manually at 10× magnification, corresponding to 1 mm^2 area. […]"}, "[2]": {"system": "CHOP-sensitive CRL2631 cells", "experiment": "Prevention of the emergence of CHOP resistance in CRL2631 cells", "type": "cell-based, human", "conditions": "half (0.5×) and full (1×) doses of CHOP, one week treatment", "description": "The ability of rifabutin to prevent the emergence of CHOP-resistance was determined by treating CHOP-sensitive CRL2631 cells with either CHOP alone or CHOP+rifabutin for one week. Following treatment, the cells were grown in the absence of CHOP, then their sensitivity to CHOP was assayed by retreatment with CHOP, followed by counting of viable cells. […] A 1× CHOP dose in this experiment corresponds to final concentrations of the following components: 0.83 μM 4-hydroxycyclophosphamide [4HC, a pre-activated form of cyclophosphamide], 0.057 μM doxorubicin, 0.01 μM vincristine, and 0.186 μM prednisone."}, "[3]": {"system": "total intracellular ROS", "experiment": "Intracellular ROS by CellROX staining and flow cytometry", "type": "cell-based", "conditions": "CHOP-resistant (G3) cells, 10 uM rifabutin, FIG. 35", "source_text": "Cells were then stained with the fluorescent ROS indicator, CellROX, and subjected to flow cytometry to quantitate total intracellular ROS.\nThe electron transport chain (ETC) is known to be a primary generator of ROS in the cell. Most of the ROS is generated by Complexes I and III of the ETC. Inhibition of Complex I results in electrons piling up and leaking to react with oxygen to produce ROS.\nMDR/P-gp activity is closely associated with calcium status in the cell, so calcium modulators were tested for effects on ROS. […] Relatively Dox-sensitive lymphoma (CRL2631, 10S, WSU) and ovarian carcinoma (OVCAR8) and more Dox-resistant lymphoma (G3R, 10R, WSUR) and ovarian carcinoma (ADR) were treated with 10 uM […] for 2 hrs. […] Cells were co-stained with the cell-permeable red fluorescent ROS indicator, CellROX, and cell-permeable green fluorescent calcium indicator. Fluo-4AM, and then subjected to flow cytometry to quantitate changes in ROS and calcium levels.\nAll samples were analyzed at the same time in flow cytometry."}, "[4]": {"system": "CHOP-resistant G3 NHL cells", "experiment": "Cell growth assay (resazurin fluorescence) on G3 cells", "type": "cell-based, human", "description": "Compositions were tested on CHOP-resistant G3 NHL cells that had been cultivated in RPMI medium for five days. Prior to assay, the cells were counted by haemocytometer and cell concentration standardized to 625,000 cells/ml. Test drugs were solubilized in 100% DMSO and then diluted to final assay concentration with 0.1M phosphate buffered saline (PBS) and a final DMSO concentration of 0.5%. […] The metabolic dye rezasurin was added to the wells of the assay plate at a final concentration of 20 μg/ml and the plates were incubated for an additional 24 hours. The plates were then read in a BMG Polarstar plate reader at wavelength (573-605) and the data plotted as OD versus increasing dilutions (i.e., decreasing total amounts) of rifabutin derivative concentration.\nIn these experiments, the following cell lines were used: CHOP-resistant NHL cell line G3, CHOP-sensitive NHL cell line CRL2631, the multi-drug resistant sarcoma cell line MES-SA-Dx5; multi-drug-resistant breast cancer cell line MDA-MB-231, multi-drug resistant ovarian carcinoma cell line SK-OV3, multi-drug resistant ovarian cancer cell line NCI/ADR-RES, drug-sensitive ovarian cancer cell line OVCAR-5, and multi-drug resistant ovarian cancer cell line OVCAR-3. […]"}, "[5]": {"system": "G3 CHOP-resistant NHL cells", "experiment": "G3 tumor efficacy studies in SCID mice", "type": "in vivo", "description": "In a first efficacy study, 6-8 week old female SCID mice (7 mice per treatment arm) were injected subcutaneously on both flanks with 1×10^7 G3 CHOP-resistant NHL cells. Once palpable tumors (about […] size) appeared, therapies (CHOP or CHOP+rifabutin) were started. CHOP was administered at the maximum tolerated dose (cyclophosphamide, 40 mg/kg i.v.; doxorubicin, 3.3 mg/kg i.v.; vincristine, 0.5 mg/kg i.v.; and prednisone, 0.2 mg/kg orally daily for 5 d) weekly for 3 weeks. Rifabutin in an amount of 100 mg/kg was administered on the day of each CHOP treatment and 24-hours later by gavage. Mouse body weight and tumor size were monitored every two days and tumor size measured by caliper. The tumor volume formula (L*W*W)/2 was used to calculate tumor mass.\nA second efficacy study was conducted where mice were treated before the appearance of palpable tumors. In that experiment, one week after transplantation of CHOP-resistant G3 cells, one group (7 mice) was treated with CHOP-only and a second group (8 mice) was treated with CHOP+rifabutin.\nA third study was conducted in which mice injected with CHOP-resistant G3 cells received reduced dosages of CHOP in combination with 33 mg/kg rifabutin. CHOP+rifabutin was administered weekly beginning one week post-inoculation. Control mice were given no CHOP or rifabutin.\nSCID mice were injected with CHOP-resistant G3 cells in the same manner as the first efficacy study above. Treatments began 2 weeks post-inoculation and were administered twice weekly."}, "[6]": {"target": "ABCB1 pumps (Homo sapiens, UniProt P08183)", "sequence (P08183 whole entry)": "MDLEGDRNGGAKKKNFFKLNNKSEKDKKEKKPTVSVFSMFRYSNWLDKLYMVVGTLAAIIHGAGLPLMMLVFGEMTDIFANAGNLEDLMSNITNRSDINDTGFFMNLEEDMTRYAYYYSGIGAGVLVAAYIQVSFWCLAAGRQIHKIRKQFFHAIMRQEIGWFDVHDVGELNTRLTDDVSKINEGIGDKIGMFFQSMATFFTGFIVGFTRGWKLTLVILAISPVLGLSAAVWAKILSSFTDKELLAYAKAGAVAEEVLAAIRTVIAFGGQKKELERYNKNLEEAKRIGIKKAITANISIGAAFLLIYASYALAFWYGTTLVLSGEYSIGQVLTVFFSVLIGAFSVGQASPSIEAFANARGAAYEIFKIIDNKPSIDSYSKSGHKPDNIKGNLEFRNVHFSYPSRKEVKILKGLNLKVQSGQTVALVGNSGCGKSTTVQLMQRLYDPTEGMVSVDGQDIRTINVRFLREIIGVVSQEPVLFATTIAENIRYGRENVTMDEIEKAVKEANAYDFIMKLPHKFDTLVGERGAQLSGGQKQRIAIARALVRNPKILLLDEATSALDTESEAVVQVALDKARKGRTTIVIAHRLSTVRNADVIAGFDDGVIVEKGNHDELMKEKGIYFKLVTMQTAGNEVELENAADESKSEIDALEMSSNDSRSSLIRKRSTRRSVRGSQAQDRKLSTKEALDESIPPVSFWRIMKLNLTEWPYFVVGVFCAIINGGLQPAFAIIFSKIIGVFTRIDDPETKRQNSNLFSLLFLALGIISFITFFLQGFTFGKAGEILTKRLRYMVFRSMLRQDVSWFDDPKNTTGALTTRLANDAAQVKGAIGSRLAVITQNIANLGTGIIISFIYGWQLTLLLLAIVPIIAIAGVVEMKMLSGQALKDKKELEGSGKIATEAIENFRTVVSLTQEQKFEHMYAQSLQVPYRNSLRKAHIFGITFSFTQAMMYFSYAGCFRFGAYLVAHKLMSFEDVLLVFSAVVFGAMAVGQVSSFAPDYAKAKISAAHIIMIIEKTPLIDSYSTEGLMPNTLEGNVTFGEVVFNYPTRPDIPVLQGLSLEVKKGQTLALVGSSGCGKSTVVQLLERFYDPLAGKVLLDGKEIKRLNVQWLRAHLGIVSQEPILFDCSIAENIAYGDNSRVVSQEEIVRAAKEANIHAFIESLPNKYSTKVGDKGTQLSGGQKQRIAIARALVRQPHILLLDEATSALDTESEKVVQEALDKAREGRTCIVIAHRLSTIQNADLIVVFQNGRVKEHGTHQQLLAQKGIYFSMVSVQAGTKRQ", "conditions": "NCI/ADR-RES and G3 cells"}}, "data": [{"smiles": "CO[C@H]1/C=C/O[C@@]2(C)Oc3c(C)c(O)c4c(c3C2=O)C2=NC3(CCN(CC(C)C)CC3)NC2=C(NC(=O)/C(C)=C\\C=C\\[C@H](C)[C@H](O)[C@@H](C)[C@@H](O)[C@@H](C)[C@H](OC(C)=O)[C@@H]1C)C4=O", "note": "[Rifabutin, rifabutin]", "values": [{"measurement": "Reduction of the amount of invasion", "setting": "[1]", "value": "Less of this effect"}, {"measurement": "Emergence of CHOP-resistant cells", "setting": "[2]", "value": "significantly repress"}, {"measurement": "Induction of ROS", "setting": "[3]", "value": "rapidly induces ROS"}, {"measurement": "Magnitude of potentiation in combination with doxorubicin", "setting": "[4]; G3", "value": "+++ (+++ potentiation greater than 5 fold increase)"}, {"measurement": "Effect on growth of cells in the absence of CHOP", "setting": "[4]; G3 cells, FIG. 2A", "value": "did not affect the growth"}, {"measurement": "Overall tumor burden per mouse versus CHOP only", "setting": "[5]; first study, CHOP at maximum tolerated dose weekly for 3 weeks + rifabutin 100 mg/kg by gavage", "value": "much lower"}, {"measurement": "Tumor load versus untreated mice", "setting": "[5]; third study, reduced dosages of CHOP + 33 mg/kg rifabutin weekly", "value": "significantly less"}, {"measurement": "Inhibition of efflux pumps", "setting": "[6]", "value": "clear inhibition"}]}]}
